# Several values for one entry are separate records, joined by “and”; a condition that tells them apart may be missing. Identical values can stand only once. Like-named read-outs stand apart in the source and are kept apart here.
# Tested on: L. major lysate proteins
# Test: Multitargeted bead mixture chemoproteomics, single concentration competition, proteome-wide
# Format: binding
# Conditions: for fold change / fold change relative to vehicle control: vehicle control = 1; for fold change relative to vehicle control: competition with free ligand
smiles,measurement,setting,value
Nc1nc2cccc(-c3ccccc3)c2n1Cc1ccc(Cl)c(Cl)c1 [compound 3],fold change vs vehicle control,,1.02 and 1.09 and 1
same,fold change,LINJ.05.0500 ATPASE ALPHA SUBUNIT,1.08
same,fold change,LINJ.36.4570 […] SUBUNIT,0.83
same,fold change,"LMJF.10.0510 GLYCEROL-3-PHOSPHATE DEH[…] ], GLYCOSOMAL",0.91
same,fold change,LMJF.16.1610 PROHIBITIN,1.25
same,fold change,"LMJF.18.1370 HEAT SHOCK PROTEIN, PUTATIVE",1.16
same,fold change,"LMJF.19.0300 RNA BINDING PROTEIN, PUTATIVE",0.91
same,fold change,"LMJF.21.0760 […]-ATP-ASE SUBUNIT 5, PUTATIVE",0.77
same,fold change,"LMJF.22.0410 HY[…], CONSERVED",0.97
same,fold change,"LMJF.25.1770 ENOYL-COA REDUCTASE, PUTATIVE",1.06
same,fold change,LMJF.26.0300 AMINOPEPTIDASE-LIKE PROTEIN,0.7
same,fold change,"LMJF.26.2560 HY[…], CONSERVED",1.1
same,fold change,"LMJF.27.1810 GLYCOSOMAL PHOSPHOENOLPYRUVATE CARBOXYKINASE, PUTATIVE",1.1
same,fold change,"LMJF.28.0490 PROPIONYL-COA C[…] CHAIN, PUTATIVE",0.63
same,fold change,"LMJF.29.0940 HY[…], CONSERVED",1.08
same,fold change,"LMJF.29.1310 CARNITINE/CHOLINE ACETYLTRANSFERASE, PUTATIVE",0.86
same,fold change,"LMJF.29.1470 HY[…], CONSERVED",0.86
same,fold change,"LMJF.29.2440 HY[…], CONSERVED",1.01
same,fold change,LMJF.30.2350 SPHINGOSINE 1-PHOSPHATE LYASE,1.2
same,fold change,"LMJF.30.2970 GLYCERALDEHYDE 3-PHOSPHATE DEHYDROGENASE, GLYCOSOMAL",1.09
same,fold change,"LMJF.30.3390 CAS/CSE/IMPORTIN DOMAIN PROTEIN, PUTATIVE",0.98
same,fold change,LMJF.31.2650 ACETOIN DEHYDROGENASE E3 COMPONENT-LIKE PROTEIN,0.96
same,fold change,"LMJF.31.2970 ACETYL-COA CARBOXYLASE, PUTATIVE",0.89
same,fold change,"LMJF.33.1030 HY[…], CONSERVED",0.88
same,fold change,LMJF.35.5040 polyadenylate-binding protein 1,0.88
same,fold change,"LMJF.35.5250 ALPHA-1,2-MANNOSYLTRANSFERASE, PUTATIVE",0.83
same,fold change,"LMJF.36.5100 HY[…], CONSERVED",1.03
same,fold change,"LMJF.[…] RIBOSOMAL PROTEIN S7, PUTATIVE",1.35
same,fold change vs vehicle control,"protein LINJ.03.0940 HY[…], CONSERVED",1.07
same,fold change vs vehicle control,"protein LINJ.09.0030 HY[…], CONSERVED",0.7
same,fold change relative to vehicle control,"protein LINJ.11.0780 40S RIBOSOMAL PROTEIN S21, PUTATIVE",1.32
same,fold change,"protein LINJ.13.0990 […] SUBUNIT 2, PUTATIVE",0.91
same,fold change vs vehicle control,protein LINJ.13.1460 ALPHA TUBULIN,0.98
same,fold change,"protein LINJ.15.0090 HEAT SHOCK PROTEIN HSLVU, ATPASE SUBUNIT HSLU, PUTATIVE",0.88
same,fold change relative to vehicle control,"protein LINJ.16.1380 […], PUTATIVE",0.96
same,fold change vs vehicle control,protein LINJ.19.0300 RNA BINDING PROTEIN,1.22
same,fold change,"protein LINJ.20.0630 CYTIDINE TR[…], PUTATIVE",1.05
same,fold change relative to vehicle control,"protein LINJ.20.1390 COATOMER BETA SUBUNIT, PUTATIVE",0.93
same,fold change vs vehicle control,"protein LINJ.21.1310 40S RIBOSOMAL PROTEIN S23, PUTATIVE",1.16
same,fold change vs vehicle control,"protein LINJ.23.1680 HY[…], CONSERVED",1.1
same,fold change vs vehicle control,"protein LINJ.25.1170 […] OXIDASE VII, PUTATIVE",1.01
same,fold change relative to vehicle control,protein LINJ.25.1220 RIBOSOMAL PROTEIN S25,1.27
same,fold change vs vehicle control,"protein LINJ.26.1080 HY[…], CONSERVED",1.08
same,fold change vs vehicle control,"protein LINJ.27.1140 HY[…], CONSERVED",1.02
same,fold change vs vehicle control,"protein LINJ.28.1100 RIBOSOMAL PROTEIN S20, PUTATIVE",0.97
same,fold change relative to vehicle control,"protein LINJ.28.1940 R[…] A, 51KDA SUBUNIT, PUTATIVE",1.1
same,fold change,"protein LINJ.31.2350 ADP-RI[…], PUTATIVE",1.09
same,fold change vs vehicle control,"protein LINJ.34.0670 […]-ATP-ASE SUBUNIT 11, PUTATIVE",0.75
same,fold change,"protein LINJ.35.0410 40S RIBOSOMAL PROTEIN S3A, PUTATIVE",1.1
same,fold change relative to vehicle control,"protein LINJ.35.0780 CBS DOMAIN PROTEIN, CONSERVED",1.01
same,fold change vs vehicle control,"protein LINJ.36.0510 HY[…], CONSERVED",0.99
same,fold change vs vehicle control,"protein LINJ.36.3940 40S RIBOSOMAL PROTEIN S27-1, PUTATIVE",0.88
same,fold change,protein LINJ.36.4180 HS1VU COMPLEX P[…]-LIKE,0.87
same,fold change,protein LINJ.36.7350 […] OXIDASE SUBUNIT I,0.96
same,fold change,"protein LMJF.01.0520 LONG-CHAIN-FATTY-ACID-COA LIGASE, PUTATIVE",0.91
same,fold change vs vehicle control,"protein LMJF.02.0460 HY[…], CONSERVED",1.05
same,fold change vs vehicle control,"protein LMJF.03.0230 LONG CHAIN FATTY ACYL COA SYNTHETASE, PUTATIVE",0.98
same,fold change vs vehicle control,"protein LMJF.03.0630 HY[…], CONSERVED",0.95
same,fold change,"protein LMJF.05.0780 HY[…], CONSERVED",1.06
same,fold change,protein LMJF.06.0010 HISTONE H4,1.11
same,fold change,"protein LMJF.06.0140 […] 6 SUBUNIT, PUTATIVE",0.69
same,fold change,"protein LMJF.06.0650 […], PUTATIVE",1
same,fold change vs vehicle control,"protein LMJF.08.0510 RIBOSE-PHOSPHATE PYROPHOSPHOKINASE, PUTATIVE",0.99
same,fold change vs vehicle control,protein LMJF.08.0550 T[…]-LIKE PROTEIN,1.01
same,fold change vs vehicle control,"protein LMJF.08.1100 HY[…], CONSERVED",0.98
same,fold change relative to vehicle control,"protein LMJF.09.1120 MIT[…] BINDING PROTEIN 2,MRP2, GBP25",1.01
same,fold change vs vehicle control,"protein LMJF.09.1260 HY[…], CONSERVED",0.98
same,fold change,protein LMJF.10.1010 NUCLEOSIDE PHOSPHORYLASE-LIKE PROTEIN,0.97
same,fold change,"protein LMJF.10.1240 HY[…], CONSERVED",0.91
same,fold change vs vehicle control,protein LMJF.11.0130 NGG1 I[…] 3-LIKE PROTEIN,0.94
same,fold change vs vehicle control,"protein LMJF.11.0240 […] 7 SUBUNIT, PUTATIVE",1.1
same,fold change,"protein LMJF.11.1050 PRETRA[…], ALPHA SUBUNIT, PUTATIVE",1.24
same,fold change vs vehicle control,"protein LMJF.11.1110 60S RIBOSOMAL PROTEIN L28, PUTATIVE",1.17
same,fold change vs vehicle control,"protein LMJF.12.0210 […] […]1L8 3, PUTATIVE",1.07
same,fold change vs vehicle control,"protein LMJF.12.0280 ORNITHINE DECARBOXYLASE, PUTATIVE",1
same,fold change vs vehicle control,"protein LMJF.13.0450 HY[…], CONSERVED",0.93
same,fold change vs vehicle control,"protein LMJF.13.0870 MIT[…] ALPHA SUBUNIT, PUTATIVE",1.33
same,fold change vs vehicle control,"protein LMJF.14.0130 INOSINE-GUANINE […], PUTATIVE",0.93
same,fold change,"protein LMJF.14.0310 […] 3 SUBUNIT, PUTATIVE",0.98
same,fold change,"protein LMJF.14.0650 FATTY ACID ELONGASE, PUTATIVE",1.11
same,fold change,"protein LMJF.14.0660 FATTY ACID ELONGASE, PUTATIVE",1.17
same,fold change,"protein LMJF.14.0705 FATTY ACID ELONGASE, PUTATIVE",1.24
same,fold change,"protein LMJF.14.0740 FATTY ACID ELONGASE, PUTATIVE",1.23
same,fold change relative to vehicle control,"protein LMJF.14.1120 KINESIN K39, PUTATIVE",1.49
same,fold change vs vehicle control,"protein LMJF.15.0230 LYSYL-TRNA SYNTHETASE, PUTATIVE",1.01
same,fold change vs vehicle control,"protein LMJF.15.0280 RIBONUCLEOPROTEIN P18, MIT[…], PUTATIVE",0.99
same,fold change,protein LMJF.15.1010 GLUTAMATE DEHYDROGENASE,1.08
same,fold change relative to vehicle control,"protein LMJF.16.0520 HY[…], CONSERVED",1.36
same,fold change,"protein LMJF.16.0540 ASPARTATE […], PUTATIVE",1.04
same,fold change vs vehicle control,protein LMJF.16.0950 SUCROSE-PHOSPHATE SYNTHASE-LIKE PROTEIN,1.31
same,fold change vs vehicle control,"protein LMJF.16.0960 HY[…], CONSERVED",0.93
same,fold change,protein LMJF.16.1180 COATOMER DELTA SUBUNIT-LIKE PROTEIN,1.08
same,fold change,"protein LMJF.17.0010 HY[…], CONSERVED",1.07
same,fold change vs vehicle control,"protein LMJF.18.0510 ACONITASE, PUTATIVE",1.01
same,fold change vs vehicle control,"protein LMJF.18.0890 RAB7 GTP BINDING PROTEIN, PUTATIVE",0.91
same,fold change,"protein LMJF.18.1130 RAS-RELATED PROTEIN RAB-5, PUTATIVE",1
same,fold change,"protein LMJF.19.1120 […]-ATP-ASE SUBUNIT, PUTATIVE",0.82
same,fold change vs vehicle control,"protein LMJF.19.1160 HY[…], CONSERVED",3.16
same,fold change vs vehicle control,protein LMJF.19.1530 PEPT[…]-LIKE PROTEIN,1.01
same,fold change,"protein LMJF.20.0100 PHOSPH[…] C, GLYCOSOMAL",1.01
same,fold change vs vehicle control,"protein LMJF.21.0720 HY[…], CONSERVED",0.93
same,fold change,"protein LMJF.21.1250 ADENYLATE KINASE, PUTATIVE",0.71
same,fold change,"protein LMJF.21.1555 HY[…], CONSERVED",1.05
same,fold change,"protein LMJF.21.1580 HY[…], UNKNOWN FUNCTION",1.2
same,fold change vs vehicle control,"protein LMJF.21.1700 […] 2 SUBUNIT, PUTATIVE",1.03
same,fold change,"protein LMJF.22.0230 AMINO ACID PERMEASE, PUTATIVE",1.26
same,fold change,"protein LMJF.22.0570 […] SUBUNIT 1, PUTATIVE",0.99

# Reference: paper PMC6199744, “Development of Chemical Proteomics for the Folateome and Analysis of the Kinetoplastid Folateome” (ACS Infectious Diseases, 2018)
